Measurements reported in PMC9458111, “New 1,2,3-Triazole-Coumarin-Glycoside Hybrids and Their 1,2,4-Triazolyl Thioglycoside Analogs Targeting Mitochondria Apoptotic Pathway: Synthesis, Anticancer Activity and Docking Simulation” (Molecules, 2022).

Columns and labels:
[1] = tested on: human colorectal adenocarcinoma (Caco-2 cell lines); experiment: MTT cytotoxicity assay, Caco-2; assay type: cell-based; settings: Caco-2, 48 h
Procedure: (§1) The synthesized compounds were studied for their cytotoxic activity against several human cancer cell lines, namely human osteosarcoma (HOS cell lines), human breast adenocarcinoma (MDA-MB-231 cell lines), human breast cancer (MCF-7 cell lines), human colorectal adenocarcinoma (Caco-2 cell lines) and human colon cell line (HCT-116 cell lines) using MTT assay at 100 µM, and the results were outlined as shown in Table 1.
(§2) Human osteosarcoma (HOS cell line), human breast adenocarcinoma (MDA-MB-231cell lines), human breast cancer (MCF-7 cell lines), human colorectal adenocarcinoma (Caco2 cell lines), human colon cell line (HCT-116 cell lines), normal human cell lines (BJ-1), and “a telomerase immortalized normal foreskin fibroblast cell line” were obtained from Karolinska Center, Department of Oncology and Pathology, Karolinska Institute and Hospital, Stockholm, Sweden.
(§3) Following culturing for 10 days, the cells were seeded at concentration of 10 × 10^3 cells per well in case of MCF-7 & MDA, 20 × 10^3 cells/well in a fresh complete growth medium in case of HCT-116, Caco2, & HOS and 40 × 10^3 cells/well in case of BJ-1 at 37 °C for 24 h in a water jacketed carbon dioxide incubator. After 48 h’ incubation, the medium was aspirated, and then 40 μl MTT salt (2.5 mg/mL) were added for a further 4 h; 200 μl 10% sodium dodecyl sulphate (SDS) in deionized water were added to each well and incubated overnight at 37 °C. The absorbance was measured at 595 nm with reference 690 nm. Doxorubicin was used as positive control, and 0.5% DMSO was used as negative control. IC50 values were calculated, using a probit analysis, and by utilizing the SPSS computer program (SPSS for Windows, statistical analysis software package/version 9/1989 SPSS Inc., Chicago, IL, USA).

[2] = target: VEGFR-2 (Homo sapiens, UniProt P35968); experiment: VEGFR-2 inhibitory assay (ELISA); assay type: biochemical; settings: for IC50: mean of three values, read-out: IC50 (Mean ± SEM), VEGFR-2
Procedure: The cells were harvested, and the homogenates were prepared in saline using a tight pestle homogenizer until complete cell disruption. The kit uses a double-antibody sandwich enzyme-linked immunosorbent assay (ELISA) to determine the level of human VEGFR-2 in samples. A monoclonal antibody for VEGFR-2 was pre-coated onto 96-well plates. The test samples are added to the wells, and a biotinylated detection polyclonal antibody from goat specific for VEGFR-2 was added subsequently followed by washing with PBS buffer. Avidin-Biotin-Peroxidase complex was added, and the unbound conjugates were washed away with PBS buffer. HRP substrate TMB was used to visualize HRP enzymatic reaction. TMB was catalyzed by HRP to produce a blue color product that changed into yellow after adding acidic stop solution. The density of yellow color is proportional to the human VEGFR-2 amount of the sample captured in the plate. The chroma of color and the concentration of the human VEGFR-2 of the samples were positively correlated, and the optical density was determined at 450 nm. The level of human VEGFR-2 in samples was calculated (pg/ml) as duplicate determinations from the standard curve. Percent inhibition was calculated in comparison to control untreated cells.

[3] = tested on: human breast adenocarcinoma (MDA-MB-231 cell lines); experiment: MTT cytotoxicity assay, MDA-MB-231; assay type: cell-based; settings: MDA-MB-231, 48 h
Procedure: as §1, §2, §3

[4] = tested on: human osteosarcoma (HOS cell lines); experiment: MTT cytotoxicity assay, HOS; assay type: cell-based; settings: 48 h
Procedure: as §1, §2, §3

[5] = target: CDK-2/cyclin A2 (Homo sapiens, UniProt P24941); experiment: CDK-2/cyclin A2 inhibitory assay (ELISA); assay type: biochemical; settings: for IC50: mean of three values, read-out: IC50 (Mean ± SEM), CDK-2/Cyclin A2
Procedure: Assay of CDK-2/cyclin A2 was achieved through ELISA using an affinity tag labeled capture antibody. […] After the incubation period, the unrestrained substance has been discarded, and the wells have been washed. The added TMB (3,3′,5,5′-tetramethylbenzidine) substrate was prompted by Horseradish peroxidase (HRP), and blue coloration appeared. This reaction was stopped through the addition of stop solution to complete changing in colour from blue to yellow. The created signals were equivalent to the quantity of bound analyte, and the Robonik P2000 ELISA reader was used to record the intensity at a certain wavelength (450 nm).

[6] = tested on: human breast cancer (MCF-7 cell lines); experiment: MTT cytotoxicity assay, MCF-7; assay type: cell-based; settings: for cytotoxicity at 100 µM: MCF7, 48 h; for IC50: MCF7, MTT, 0.78–100 µM, ± SD
Procedure: as §1, §2, §3

[7] = tested on: human colon cell line (HCT-116 cell lines); experiment: MTT cytotoxicity assay, HCT-116; assay type: cell-based; settings: for cytotoxicity at 100 µM: HCT-116, 48 h
Procedure: as §1, §2, §3

[8] = target: EGFR (Homo sapiens, UniProt P00533); experiment: EGFR kinase inhibitory assay (Kinase-Glo Max luminescence); assay type: biochemical; settings: for IC50: mean of three values, read-out: IC50 (Mean ± SEM), EGFR
[9] = tested on: normal human skin cell lines BJ-1; experiment: Safety on normal human skin cells BJ-1 (MTT); assay type: cell-based; settings: 100 µM
Procedure: To determine the selectivity and safety, all tested compounds were subjected to an assay for their safety upon normal human skin cell lines BJ-1 at a concentration of 100 µM.
as §2, §3

Chain of EGFR (P00533 25-1210): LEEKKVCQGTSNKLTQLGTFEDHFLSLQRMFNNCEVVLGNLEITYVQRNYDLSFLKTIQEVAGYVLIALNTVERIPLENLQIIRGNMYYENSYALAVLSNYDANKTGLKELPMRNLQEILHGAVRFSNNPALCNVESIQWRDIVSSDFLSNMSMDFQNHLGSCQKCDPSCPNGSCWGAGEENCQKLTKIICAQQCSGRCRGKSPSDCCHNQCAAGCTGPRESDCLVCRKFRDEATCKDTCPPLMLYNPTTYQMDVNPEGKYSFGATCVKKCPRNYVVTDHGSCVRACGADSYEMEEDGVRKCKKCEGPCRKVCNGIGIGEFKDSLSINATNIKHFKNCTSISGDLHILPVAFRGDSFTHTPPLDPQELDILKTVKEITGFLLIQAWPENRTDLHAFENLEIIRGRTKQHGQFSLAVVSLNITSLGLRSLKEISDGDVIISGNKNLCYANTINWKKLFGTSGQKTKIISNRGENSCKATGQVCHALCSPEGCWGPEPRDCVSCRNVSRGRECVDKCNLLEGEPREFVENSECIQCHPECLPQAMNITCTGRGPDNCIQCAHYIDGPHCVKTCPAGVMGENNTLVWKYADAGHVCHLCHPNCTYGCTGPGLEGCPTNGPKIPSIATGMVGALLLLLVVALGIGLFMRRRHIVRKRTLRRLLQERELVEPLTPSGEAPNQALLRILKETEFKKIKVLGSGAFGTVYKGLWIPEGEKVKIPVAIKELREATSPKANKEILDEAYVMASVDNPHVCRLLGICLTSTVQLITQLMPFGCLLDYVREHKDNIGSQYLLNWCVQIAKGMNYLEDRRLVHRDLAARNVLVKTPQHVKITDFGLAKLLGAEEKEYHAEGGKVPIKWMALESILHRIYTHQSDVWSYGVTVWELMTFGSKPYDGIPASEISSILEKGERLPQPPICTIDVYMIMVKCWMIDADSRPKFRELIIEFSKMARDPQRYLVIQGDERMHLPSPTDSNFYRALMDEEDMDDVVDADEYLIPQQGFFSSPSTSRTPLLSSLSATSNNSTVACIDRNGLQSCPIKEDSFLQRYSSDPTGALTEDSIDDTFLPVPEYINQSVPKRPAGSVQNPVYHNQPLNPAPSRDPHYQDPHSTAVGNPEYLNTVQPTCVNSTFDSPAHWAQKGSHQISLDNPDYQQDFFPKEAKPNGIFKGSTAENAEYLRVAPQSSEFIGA
Chain of VEGFR-2 (P35968 20-1356): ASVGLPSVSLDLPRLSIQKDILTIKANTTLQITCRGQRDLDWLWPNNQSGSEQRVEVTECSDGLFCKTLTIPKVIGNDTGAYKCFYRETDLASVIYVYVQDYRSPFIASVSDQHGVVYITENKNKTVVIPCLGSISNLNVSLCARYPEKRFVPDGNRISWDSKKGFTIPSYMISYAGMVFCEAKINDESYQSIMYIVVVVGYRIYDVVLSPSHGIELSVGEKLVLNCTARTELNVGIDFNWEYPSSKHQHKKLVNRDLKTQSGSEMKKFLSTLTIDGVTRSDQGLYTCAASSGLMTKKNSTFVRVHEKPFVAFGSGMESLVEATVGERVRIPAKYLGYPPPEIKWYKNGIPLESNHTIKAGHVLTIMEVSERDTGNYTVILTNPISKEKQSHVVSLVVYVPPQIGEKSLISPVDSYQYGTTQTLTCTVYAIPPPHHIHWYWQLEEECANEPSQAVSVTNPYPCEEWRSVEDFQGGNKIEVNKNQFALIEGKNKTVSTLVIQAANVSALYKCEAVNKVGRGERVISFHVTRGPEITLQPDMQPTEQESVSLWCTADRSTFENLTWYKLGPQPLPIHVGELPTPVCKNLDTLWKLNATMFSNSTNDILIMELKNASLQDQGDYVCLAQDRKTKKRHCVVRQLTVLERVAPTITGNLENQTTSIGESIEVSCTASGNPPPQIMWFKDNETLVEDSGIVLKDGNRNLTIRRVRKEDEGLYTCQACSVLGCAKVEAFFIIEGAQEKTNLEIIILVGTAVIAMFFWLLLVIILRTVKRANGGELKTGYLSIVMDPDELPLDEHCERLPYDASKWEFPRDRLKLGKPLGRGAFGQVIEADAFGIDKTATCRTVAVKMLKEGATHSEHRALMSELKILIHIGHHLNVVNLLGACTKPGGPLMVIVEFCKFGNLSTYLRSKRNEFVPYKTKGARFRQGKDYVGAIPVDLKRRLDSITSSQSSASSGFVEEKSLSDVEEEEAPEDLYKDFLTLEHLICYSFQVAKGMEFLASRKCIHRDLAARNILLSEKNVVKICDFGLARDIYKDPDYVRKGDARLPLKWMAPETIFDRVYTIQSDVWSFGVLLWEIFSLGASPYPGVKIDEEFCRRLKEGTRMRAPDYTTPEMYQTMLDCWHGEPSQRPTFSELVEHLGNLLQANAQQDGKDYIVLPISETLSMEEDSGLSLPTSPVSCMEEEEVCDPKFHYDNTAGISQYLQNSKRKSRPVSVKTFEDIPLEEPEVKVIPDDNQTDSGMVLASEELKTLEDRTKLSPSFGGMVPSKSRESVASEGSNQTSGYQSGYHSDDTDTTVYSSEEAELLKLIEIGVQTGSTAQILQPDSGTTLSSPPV

| Compound | cytotoxicity at 100 µM [1] | IC50 [2] | melting point | cytotoxicity at 100 µM [3] | cytotoxicity at 100 µM [4] | IC50 [5] | cytotoxicity at 100 µM [6] | IC50 [6] | cytotoxicity at 100 µM [7] | IC50 [8] | Inhibitory activity against VEGFR-2 (in words) [2] | Inhibitory activity against CDK-2/cyclin A2 (in words) [5] | IC50 ([7]; HCT-116, MTT, 0.78–100 µM, ± SD) | Inhibitory activity against EGFR (in words) [8] | Toxicity on normal skin cells BJ-1 (in words) [9] |
| --- | --- | --- | --- | --- | --- | --- | --- | --- | --- | --- | --- | --- | --- | --- | --- |
| Cn1c(COc2ccc3c(-c4ccccc4)cc(=O)oc3c2)nnc1SC1OCC(O)C(O)C1O [Compound 8, 4-Phenyl-7-((4-methyl-5-(1-(β-D-xylopyranosyl)thio)-4H-1,2,4-triazol-3-yl)meth-oxy)-2H-chromen-2-one] | 28.4 ± 0.6% | 0.93 ± 0.42 µM | 231 to 232 °C | 37.1 ± 2.3% | 41.9 ± 0.7% | 0.24 ± 0.2 µM | 60.1 ± 0.7% | 52.2 ± 1.3 µM | 23 ± 0.6% | 0.22 ± 0.01 µM |  |  |  |  |  |
| CC(=O)OC[C@H]1O[C@@H](OCc2cn(CCCOc3ccc4c(-c5ccccc5)cc(=O)oc4c3)nn2)[C@H](OC(C)=O)[C@@H](OC(C)=O)[C@H]1OC(C)=O [Compound 21] | 59.2 ± 1.1% | 172 ± 0.02 µM | 114 to 115 °C | 26.4 ± 0.3% | 58.3 ± 1.7% | 211 ± 0.05 µM | 85.4 ± 1.8% | 38.9 ± 0.8 µM | 64.9 ± 0.5% | 123 ± 0.1 µM | no inhibitory activities | no inhibitory activities | 82.8 ± 2.3 µM | no inhibitory activities |  |
| O=c1cc(-c2ccccc2)c2ccc(OCCCn3cc(CO[C@@H]4OC[C@@H](O)[C@H](O)[C@H]4O)nn3)cc2o1 [Compound 25] | 82.7 ± 1.1% |  | 188 to 189 °C | 94.2 ± 2.2% | 90.4 ± 0.8% |  | 81.9 ± 0.9% |  | 97.1 ± 1.1% |  |  |  |  |  | high toxicity |
| O=c1cc(-c2ccccc2)c2ccc(OCCCn3cc(CO[C@@H]4O[C@H](CO)[C@H](O)[C@H](O)[C@H]4O)nn3)cc2o1 [Compound 24] | 86.5 ± 0.9% |  | 190 to 191 °C | 97.7 ± 0.8% | 97.6 ± 1.3% |  | 88.2 ± 1.1% |  | 99.1 ± 0.8% |  |  |  |  |  | high toxicity |
